Here are results for one molecule from patent US20150306226A1, “COMPOSITION” (RATIOPHARM GMBH, priority 2012, published 2015).

A short description of the series: solubility in aqueous buffer. Type of series: physicochemical. To be noted: aqueous buffer pH 7.4, room temperature. The procedure: Enantiomerically pure compound (I) has low solubility in aqueous solution. In aqueous buffer pH 7.4 the solubility measured at room temperature is about 0.01 mg/ml. Poor solubility typically leads to poor oral bioavailability, fed/fasted variations in bioavailability, cumbersome and inconvenient dosage forms, and may necessitate the use of harsh solubilising agents that are associated with adverse side effects.

Molecules are shown by their SMILES. ≈ marks a conversion by molar mass, not a printed value.

A word on the solubility: it is how much of the substance goes into solution per volume. Read a low solubility as a poorly soluble substance.

Regarding `CCOc1cc(C(CS(C)(=O)=O)N2C(=O)c3cccc(NC(C)=O)c3C2=O)ccc1OC` (stereo not shown) [compound (I), N-[2-[1-(3-ethoxy-4-methoxyphenyl)-2-(methylsulfonyl)ethyl]-1,3-dioxo-2,3-dihydro-1H-isoindol-4-yl]acetamide], the solubility is approximately 10 µg/mL (≈ 21.7 µM).
